US20260001928A1 (CORTERIA PHARMACEUTICALS, priority 2022, published 2026)
*1 amine or outer side, *2 acyl side, *3 side chain or, on linkers, in order; H or OH if unused. Where a SMILES comes first, the peptide text is derived from it. Side-chain parts run from the residue outwards. [ ]: non-standard residue; d: D form. The star is where a group is joined. C18 diacid = O=C(O)CCCCCCCCCCCCCCCCC(=O)*; C16 diacid = O=C(O)CCCCCCCCCCCCCCC(=O)*; γGlu = O=C(O)[C@H](CCC(=O)[*:2])N[*:1]; AEEA = NCCOCCOCC(=O)O; Aib = CC(C)(N)C(=O)O

Biological target: T1, CFR1R receptor (Homo sapiens, UniProt P34998)
T1 construct: host or cells: CHO-K1 (clone 2)
T1 sequence (P34998 24-415): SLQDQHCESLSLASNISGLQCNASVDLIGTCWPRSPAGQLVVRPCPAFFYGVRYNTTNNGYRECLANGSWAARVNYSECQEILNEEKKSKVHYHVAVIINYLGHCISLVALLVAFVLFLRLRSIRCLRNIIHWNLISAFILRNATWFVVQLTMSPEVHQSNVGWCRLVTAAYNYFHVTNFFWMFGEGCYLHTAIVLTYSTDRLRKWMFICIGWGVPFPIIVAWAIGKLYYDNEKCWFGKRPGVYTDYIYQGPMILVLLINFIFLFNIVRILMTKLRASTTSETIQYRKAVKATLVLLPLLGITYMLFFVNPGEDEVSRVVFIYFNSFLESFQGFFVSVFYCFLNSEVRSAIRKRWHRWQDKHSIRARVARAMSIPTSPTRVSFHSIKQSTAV
Experiment: Activity at anti-target CFR1R receptor, cAMP assay in CRF1R-overexpression CHO-K1 cells
Assay type: cell-based
Settings: 100% = Sauvagine at 100 nM
Description: Assessment of activity at anti-target CFR1R receptor is done using the same procedure as the one described for the TeloHEAC cell line. The CRF1R-overexpression CHO-K1 cell line clone 2 was purchased from PerkinElmer. Cells were grown in a 10 cm dish at 37° C./5% CO2 in medium (F12 (Hams)/10% FBS/400 μg/ml G418) to near confluence. At that stage, cells were harvested, resuspended to 10 million/mL in culture medium without G418 and with 10% DMSO. 1 mL vial aliquots were slowly frozen to −80° C. in isopropanol and then transferred in liquid nitrogen for storage. These vials were used to run the experiment following the procedure reported in the previous paragraph, except for the compound used in the control well to define the 100% activation (Sauvagine at 100 nM) and the cell density (final cell density: 4000 cells/well)

CC[C@H](C)[C@H](NC(C)=O)C(=O)N[C@H](C(=O)N[C@@H](CC(C)C)C(=O)N[C@@H](CO)C(=O)N[C@@H](CC(C)C)C(=O)N[C@@H](CC(=O)O)C(=O)N[C@@H](C(=O)N1CCC[C@H]1C(=O)N[C@H](C(=O)N[C@@H](CCCCN)C(=O)N[C@@H](CC(C)C)C(=O)N[C@@H](CCCCNC(=O)CC[C@H](NC(=O)CCCCCCCCCCCCCCC(=O)O)C(=O)O)C(=O)N[C@@H](CCC(N)=O)C(=O)N[C@H](C(=O)N[C@@H](CC(C)C)C(=O)N[C@@H](CC(C)C)C(=O)N[C@@H](CCCCN)C(=O)N[C@@H](CCC(N)=O)C(=O)N[C@@H](CCC(=O)O)C(=O)N[C@@H](CCCNC(=N)N)C(=O)N[C@@H](CCC(N)=O)C(=O)N[C@@H](CCCCN)C(=O)N[C@@H](CCCCN)C(=O)N[C@@H](CCC(N)=O)C(=O)N[C@@H](CCCNC(=N)N)C(=O)N[C@@H](CCC(=O)O)C(=O)N[C@@H](CCC(N)=O)C(=O)N[C@@H](C)C(=O)N[C@@H](CCC(=O)O)C(=O)N[C@@H](CCCCN)C(=O)N[C@@H](CC(N)=O)C(=O)N[C@@H](CCCCN)C(=O)N[C@@H](CCC(N)=O)C(=O)N[C@H](C(=O)N[C@@H](CC(C)C)C(=O)N[C@@H](CCC(=O)O)C(=O)N[C@@H](CCC(N)=O)C(=O)N[C@H](C(N)=O)C(C)C)[C@@H](C)CC)[C@@H](C)CC)[C@@H](C)CC)C(C)C)C(C)C [SEQ ID No. 2, reference compound] (Ac-IVLSLD[dV]PIKLK([γGlu-C16 diacid])QILLKQERQKKQREQAEKNKQILEQV-NH2)
Emax (% I): 4 % I

CC[C@H](C)[C@H](N)C(=O)N[C@H](C(=O)N[C@@H](CC(C)C)C(=O)N[C@@H](CO)C(=O)N[C@@H](CC(C)C)C(=O)N[C@@H](CC(=O)O)C(=O)N[C@H](C(=O)N1CCC[C@H]1C(=O)N[C@H](C(=O)N[C@@H](CCCCN)C(=O)N[C@@H](CC(C)C)C(=O)N[C@@H](CCCCNC(=O)COCCOCCNC(=O)COCCOCCNC(=O)CC[C@H](NC(=O)CC[C@H](NC(=O)CCCCCCCCCCCCCCCCC(=O)O)C(=O)O)C(=O)O)C(=O)N[C@@H](CCC(N)=O)C(=O)NC(C)(C)C(=O)N[C@@H](CC(C)C)C(=O)N[C@@H](CC(C)C)C(=O)N[C@@H](CCCCN)C(=O)N[C@@H](CCC(N)=O)C(=O)N[C@@H](CCC(=O)O)C(=O)N[C@@H](CCCNC(=N)N)C(=O)N[C@@H](CCC(N)=O)C(=O)N[C@@H](CCCCN)C(=O)N[C@@H](CCCCN)C(=O)N[C@@H](CCC(N)=O)C(=O)N[C@@H](CCCNC(=N)N)C(=O)N[C@@H](CCC(=O)O)C(=O)N[C@@H](CCC(N)=O)C(=O)N[C@@H](C)C(=O)N[C@@H](CCC(=O)O)C(=O)N[C@@H](CCCCN)C(=O)N[C@@H](CC(N)=O)C(=O)NC(C)(C)C(=O)N[C@@H](CCC(N)=O)C(=O)N[C@H](C(=O)N[C@@H](CC(C)C)C(=O)N[C@@H](CCC(=O)O)C(=O)N[C@@H](CCC(N)=O)C(=O)N[C@H](C(N)=O)C(C)C)[C@@H](C)CC)[C@@H](C)CC)C(C)C)C(C)C [compound 25] (H-IVLSLDVPIKLK([AEEA-AEEA-γGlu-γGlu-C18 diacid])Q[Aib]LLKQERQKKQREQAEKN[Aib]QILEQV-NH2)
Emax (% I): 6 % I
